What was measured:
mice [1] = assay: Forced Swim Test on mice; type: in vivo
mice [2] = assay: Cook's Pole Climbing Test on mice; type: in vivo
healthy young adults [3] = assay: Go/No Go Attention and Inhibitory Control Test; type: in vivo; conditions: 200 mg paraxanthine; 5 g BHB; 200 mg paraxanthine and 5 g BHB; baseline and 1-6 hours after supplementation; FIG. 4
From the text: Attention and inhibitory control can be measured using a Go/No Go Test, which is used to measure a participant's capacity for sustained attention and response control. The Go/No Go Test is routinely used in the field, and will be familiar to those of skill in the art. In the Go/No Go Test, participants watch a 2×2 array of squares, and then there is a successive presentation of letters (e.g., either P or R) and the participant responds to a target letter by pressing the corresponding button on a keyboard. The single letter (P or R) is presented in one of the 4 squares for 500 milliseconds, with 1500 milliseconds between subsequent stimuli. For the P-Go condition, participants are asked to press the P key in response to the letter P, and abstain from responding to the letter R. For the R-reversal condition, the participants are asked to respond to the letter R, and abstain when seeing the letter P. Mean response time, as well as percentage of correct answers are recorded. When running each such tests, subjects are given either paraxanthine+BHB, paraxanthine alone, BHB alone, or a placebo. The dosage amounts are 200 mg paraxanthine and 5 g of BHB, 200 mg of paraxanthine alone, 5 g of BHB alone, or a placebo. The testing is conducted under double blind, placebo controlled conditions. […]

healthy young adults [4] = assay: Vigilance Task Test; type: in vivo; conditions: 200 mg paraxanthine; 5 g BHB; 200 mg paraxanthine and 5 g BHB; baseline and 1-6 hours after supplementation; FIG. 6
From the text: The Vigilance Task Test is another test routinely used in the field, and is used to evaluate a participants ability to sustain attention. The Vigilance Task Test is a sustained attention, reaction timed task test that measures the speed with which participants respond to a visual stimulus. The subjects respond to visual stimuli (e.g., a red dot) by pressing a key as soon as it appears on the computer screen. The light turns on at random, e.g., roughly every couple of seconds or so during the test. The speed of response is measured. Due to the random nature of the test, there is no learning effect. Mean response time is recorded. When running each such tests, subjects are given either paraxanthine+BHB, paraxanthine alone, BHB alone, or a placebo. The dosage amounts are 200 mg paraxanthine and 5 g of BHB, 200 mg of paraxanthine alone, 5 g of BHB alone, or a placebo. The testing is conducted under double blind, placebo controlled conditions. The subjects include 13 healthy young adults (10 male, 3 female), aged 24±5 years; height 170.0±11.8 cm; weight 72.9±19.3 kg.

[5] = Age-related cognitive decline study; type: in vivo; conditions: BHB 5 g
[6] = Clinical Stroop Test study; type: in vivo; conditions: paraxanthine 200 mg; BHB 5 g; paraxanthine 200 mg with BHB 5 g; 6-week period; FIGS. 15A-15C
From the text: The Stroop effect refers to the delay in reaction time between congruent and incongruent stimuli. […] When paired with paraxanthine, the combination provides a synergistic improvement in mental acuity.

[7] = Clinical Resting Energy Expenditure study; type: in vivo; conditions: paraxanthine 100 mg or 300 mg; BHB 5 g; paraxanthine 100 mg or 300 mg with BHB 5 g; 180-day period
Procedure: FIGS. 16A-16B show expected results of a clinical Resting Energy Expenditure study, where participants are supplemented with paraxanthine alone (100 mg or 300 mg), BHB alone (5 g), or paraxanthine (100 mg or 300 mg) in combination with BHB (5 g) over a 180-day period. […] Because of the presence of the BHB ketone body component, such increased metabolic rate is also more likely to occur within the context of ketogenic state, where fat is principally used as the caloric energy source for the increased resting metabolic rate.

[8] = cited from earlier work
[9] = cited from earlier work; for Total plasma clearance: in vivo; for half-life: elimination half-life, FIG. 3
dopaminergic neurons = conditions: cited from earlier work
[10] = elevated doses; cited from earlier work
[11] = metabolite of caffeine, FIG. 2; cited from earlier work

In the case of `C[N+](C)(C)CCOP(=O)([O-])OC[C@H](O)CO` [Alpha-GPC], the “Duration of Immobility” value (mice [1]; Alpha-GPC 200 mg) is reported as 9.38 min, the “Duration of mobility/active swimming” value (mice [1]; Alpha-GPC 200 mg) is reported as 20.63 min and the “No. of Climbing” value (mice [2]; Alpha-GPC 200 mg) is reported as 5.5.
With `CC(O)CC(=O)O` (stereo not drawn) [BHB, beta-hydroxybutyrate] the “Go/No Go Test correct responses” value (healthy young adults [3]) was “decrease in correct answers over time”, the “Vigilance Task Test average response time” value (healthy young adults [4]) was “significantly slower reaction times” and the Acetylcholine [5] was 58 U/mL. It also gave a BDNF [5] of 775 pg/mL, a Catalase [5] of 28 U/mL and a Dopamine [5] of 475 ng/L. The “Escape Latency” value [5] was 50 s, the Glutathione [5] was 22 µg/mL and the “Duration of Immobility” value (mice [1]; BHB 5 g) was 9.5 min. For the same compound, the “Duration of mobility/active swimming” value (mice [1]; BHB 5 g) was 20 min, the “No. of Climbing” value (mice [2]; BHB 5 g) was 6 and the “Stroop test number of correct answers” value [6] was “little if any benefit”. The “Stroop test reaction speed” value [6] was “little if any benefit” and the resting energy expenditure [7] was “only a minor benefit”.
With `CCNC(=O)CC[C@H](N)C(=O)O` [L-Theanine, L-theanine] the “Duration of Immobility” value (mice [1]; L-Theanine 50 mg) was 8.74 min, the “Duration of mobility/active swimming” value (mice [1]; L-Theanine 50 mg) was 21.26 min and the “No. of Climbing” value (mice [2]; L-Theanine 50 mg) was 4.38.
For `NCCS(=O)(=O)O` [Taurine, taurine], the “Duration of Immobility” value (mice [1]; Taurine 500 mg) was 9.61 min, the “Duration of mobility/active swimming” value (mice [1]; Taurine 500 mg) was 20.39 min and the “No. of Climbing” value (mice [2]; Taurine 500 mg) was 6.5.
For `CC(O)CC(=O)O` (stereo not drawn) [beta-hydroxybutyric acid], the pKa [8] is given as 4.70.
In the case of `Cn1c(=O)c2c(ncn2C)n(C)c1=O` [caffeine], the Total plasma clearance [9] is given as 2.07 mL/min/kg and the “protection against neurodegeneration and the loss of synaptic function” value (dopaminergic neurons) is given as “marginal protection”.
For `NC(=O)C[S+]([O-])C(c1ccccc1)c1ccccc1` (centres unmarked) [modafinil], the “hypothermia and reduced locomotor activity” value [10] is given as “induce hypothermia and reduced locomotor activity”.
In the case of `Cn1cnc2c1c(=O)[nH]c(=O)n2C` [theobromine], the half-life [9] is given as 7.2 h and the Total plasma clearance [9] is given as 1.2 mL/min/kg.
For `Cn1c(=O)c2[nH]cnc2n(C)c1=O` [theophylline], the half-life [9] is given as 6.2 h, the Total plasma clearance [9] is given as 0.93 mL/min/kg and the “share of the methylxanthine metabolic by-products” value [11] is given as 4%.
